Test results reported in patent US20240092784A1, “CONDENSED HETEROCYCLIC COMPOUND” (NISSAN CHEMICAL CORPORATION, priority 2020, published 2024).
Where a name gives a salt, the structure may show the parent alone.

biological target: human SPR (Homo sapiens (Human), UniProt P35270); assay: Evaluation Example 2: Measurement of human SPR inhibitory activity (seven concentrations, sepiapterin absorbance at 420 nm); format: biochemical; conditions: Evaluation Example 2, seven concentrations 0.14 nM to 100 nM, 240 minutes at room temperature, read-out: IC50
Sequence (P35270 whole entry): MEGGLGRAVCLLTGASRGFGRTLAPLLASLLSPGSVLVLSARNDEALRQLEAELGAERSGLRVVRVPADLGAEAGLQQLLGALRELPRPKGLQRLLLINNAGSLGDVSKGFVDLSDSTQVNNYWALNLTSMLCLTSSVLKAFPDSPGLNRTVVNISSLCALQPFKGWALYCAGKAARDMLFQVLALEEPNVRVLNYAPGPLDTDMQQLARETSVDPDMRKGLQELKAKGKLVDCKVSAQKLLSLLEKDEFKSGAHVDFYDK
Summary of the method: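 Reactions ran 240 min at room temperature in 100 mM Tris-HCl pH 7.5 with 0.01% BSA. They contained tag-cleaved, E. coli-expressed full-length human SPR (diluted to 150 ng/mL), seven compound concentrations from 0.14 to 100 nM, and sepiapterin/NADPH added as a 120 μM/160 μM solution. Inhibition was calculated from sepiapterin absorbance at 420 nm.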

`CC(C)(C)Cn1c(=O)c(C(=O)NC2CC2)c(O)n2nc(Nc3cnc(C(=O)N4CCC(F)(F)CC4)cn3)cc12` [Synthesis Example 355, N-Cyclopropyl-2-((5-(4,4-difluoropiperidine-1-carbonyl)pyrazin-2-yl)amino)-7-hydroxy-4-neopentyl-5-oxo-4,5-dihydropyrazolo[1,5-a]pyrimidine-6-carboxamide] and `CC(C)(C)Cn1c(=O)c(C(=O)NC2CC2)c(O)n2nc(Nc3cnc(C(=O)N4CCC(C#N)CC4)cn3)cc12` [Synthesis Example 359, 2-((5-(4-Cyanopiperidine-1-carbonyl)pyrazin-2-yl)amino)-N-cyclopropyl-7-hydroxy-4-neopentyl-5-oxo-4,5-dihydropyrazolo[1,5-a]pyrimidine-6-carboxamide] are within 1.5-fold of each other in IC50: 1.1 nM for the first, 0.88 nM for the second.

`CC(C)(C)Cn1c(=O)c(C(=O)NC2CC2)c(O)n2nc(Nc3cncc(F)n3)cc12` [Synthesis Example 356, N-Cyclopropyl-2-((6-fluoropyrazin-2-yl)amino)-7-hydroxy-4-neopentyl-5-oxo-4,5-dihydropyrazolo[1,5-a]pyrimidine-6-carboxamide] and `CC(C)(C)Cn1c(=O)c(C(=O)NC2CC2)c(O)n2nc(Nc3ncco3)cc12` [Synthesis Example 361, N-Cyclopropyl-7-hydroxy-4-neopentyl-2-(oxazol-2-ylamino)-5-oxo-4,5-dihydropyrazolo[1,5-a]pyrimidine-6-carboxamide] are within 1.5-fold of each other in IC50: 1.16 nM for the first, 1.42 nM for the second.

Compared with `Cn1ccnc1Nc1cc2n(CC(C)(C)C)c(=O)c(C(=O)NC3CC3)c(O)n2n1` [Synthesis Example 357, N-Cyclopropyl-7-hydroxy-2-((1-methyl-1H-imidazol-2-yl)amino)-4-neopentyl-5-oxo-4,5-dihydropyrazolo[1,5-a]pyrimidine-6-carboxamide], `CN(CC#N)C(=O)c1cnc(Nc2cc3n(CC(C)(C)C)c(=O)c(C(=O)NC4CC4)c(O)n3n2)cn1` [Synthesis Example 358, 2-((5-((Cyanomethyl)(methyl)carbamoyl)pyrazin-2-yl)amino)-N-cyclopropyl-7-hydroxy-4-neopentyl-5-oxo-4,5-dihydropyrazolo[1,5-a]pyrimidine-6-carboxamide] is 1.7-fold lower in IC50: 1.5 nM for the first, 0.87 nM for the second.

First: CC(C)(C)Cn1c(=O)c(C(=O)NC2CC2)c(O)n2nc(Nc3cnc(C(=O)N4CC[C@H](O)C4)cn3)cc12 [Synthesis Example 360, (S)-N-Cyclopropyl-7-hydroxy-2-((5-(3-hydroxypyrrolidine-1-carbonyl)pyrazin-2-yl)amino)-4-neopentyl-5-oxo-4,5-dihydropyrazolo[1,5-a]pyrimidine-6-carboxamide]
Second: CN(C)/C=N/c1cc2n(CC(C)(C)C)c(=O)c(C(=O)NC3CC3)c(O)n2n1 [Synthesis Example 362, (E)-N-Cyclopropyl-2-(((dimethylamino)methylene)amino)-7-hydroxy-4-neopentyl-5-oxo-4,5-dihydropyrazolo[1,5-a]pyrimidine-6-carboxamide hydrochloride]
The IC50 of the first is 1.9-fold lower: 0.76 nM for the first, 1.48 nM for the second.

Going from `CC(C)Cn1c(=O)c(C(=O)NC2CC2)c(O)n2nc(/N=C/N(C)C)cc12` [Synthesis Example 363, (E)-N-Cyclopropyl-2-(((dimethylamino)methylene)amino)-7-hydroxy-4-isobutyl-5-oxo-4,5-dihydropyrazolo[1,5-a]pyrimidine-6-carboxamide hydrochloride] to `COC(C)(C)Cn1c(=O)c(C(=O)NC2CC2)c(O)n2ncc(/C=C/C(=O)N3CCOCC3)c12` [Synthesis Example 365, (E)-N-Cyclopropyl-7-hydroxy-4-(2-methoxy-2-methylpropyl)-3-(3-morpholino-3-oxoprop-1-en-1-yl)-5-oxo-4,5-dihydropyrazolo[1,5-a]pyrimidine-6-carboxamide], the IC50 falls from 1.61 nM to 0.65 nM (2.5-fold).

`O=C(NC1CC1)c1c(O)n2ncc(/C=C/C(=O)N3CCOCC3)c2n(CC2(F)CC2)c1=O` [Synthesis Example 364, (E)-N-Cyclopropyl-4-((1-fluorocyclopropyl)methyl)-7-hydroxy-3-(3-morpholino-3-oxoprop-1-en-1-yl)-5-oxo-4,5-dihydropyrazolo[1,5-a]pyrimidine-6-carboxamide] and `CC1(Cn2c(=O)c(C(=O)NC3CC3)c(O)n3ncc(/C=C/C(=O)N4CCOCC4)c23)CC1` [Synthesis Example 366, (E)-N-Cyclopropyl-7-hydroxy-4-((1-methylcyclopropyl)methyl)-3-(3-morpholino-3-oxoprop-1-en-1-yl)-5-oxo-4,5-dihydropyrazolo[1,5-a]pyrimidine-6-carboxamide] are within 1.5-fold of each other in IC50: 0.63 nM for the first, 0.75 nM for the second.

`CC1(Cn2c(=O)c(C(=O)NC3CC3)c(O)n3ncc(/C=C/C(=O)N4C5CCC4COC5)c23)CC1` [Synthesis Example 367, (E)-3-(3-(3-Oxa-8-azabicyclo[3.2.1]octan-8-yl)-3-oxoprop-1-en-1-yl)-N-cyclopropyl-7-hydroxy-4-((1-methylcyclopropyl)methyl)-5-oxo-4,5-dihydropyrazolo[1,5-a]pyrimidine-6-carboxamide] and `O=C(NC1CC1)c1c(O)n2ncc(/C=C/C(=O)N3C4CCC3COC4)c2n(CC2(F)CC2)c1=O` [Synthesis Example 376, (E)-3-(3-(3-Oxa-8-azabicyclo[3.2.1]octan-8-yl)-3-oxoprop-1-en-1-yl)-N-cyclopropyl-4-((1-fluorocyclopropyl)methyl)-7-hydroxy-5-oxo-4,5-dihydropyrazolo[1,5-a]pyrimidine-6-carboxamide] are within 1.5-fold of each other in IC50: 0.62 nM for the first, 0.72 nM for the second.

`CC1(Cn2c(=O)c(C(=O)NC3CC3)c(O)n3ncc(/C=C/C(=O)N4CC5CCC(C4)O5)c23)CC1` [Synthesis Example 368, (E)-3-(3-(8-Oxa-3-azabicyclo[3.2.1]octan-3-yl)-3-oxoprop-1-en-1-yl)-N-cyclopropyl-7-hydroxy-4-((1-methylcyclopropyl)methyl)-5-oxo-4,5-dihydropyrazolo[1,5-a]pyrimidine-6-carboxamide] and `O=C(NC1CC1)c1c(O)n2ncc(/C=C/C(=O)N3CC4CCC(C3)O4)c2n(CC2(F)CC2)c1=O` [Synthesis Example 378, (E)-3-(3-(8-Oxa-3-azabicyclo[3.2.1]octan-3-yl)-3-oxoprop-1-en-1-yl)-N-cyclopropyl-4-((1-fluorocyclopropyl)methyl)-7-hydroxy-5-oxo-4,5-dihydropyrazolo[1,5-a]pyrimidine-6-carboxamide] are within 1.5-fold of each other in IC50: 0.61 nM for the first, 0.79 nM for the second.

`C[C@H]1COCCN1C(=O)/C=C/c1cnn2c(O)c(C(=O)NC3CC3)c(=O)n(CC3(C)CC3)c12` [Synthesis Example 369, (S,E)-N-Cyclopropyl-7-hydroxy-4-((1-methylcyclopropyl)methyl)-3-(3-(3-methylmorpholino)-3-oxoprop-1-en-1-yl)-5-oxo-4,5-dihydropyrazolo[1,5-a]pyrimidine-6-carboxamide] and `C[C@@H]1COCCN1C(=O)/C=C/c1cnn2c(O)c(C(=O)NC3CC3)c(=O)n(CC3(C)CC3)c12` [Synthesis Example 370, (R,E)-N-Cyclopropyl-7-hydroxy-4-((1-methylcyclopropyl)methyl)-3-(3-(3-methylmorpholino)-3-oxoprop-1-en-1-yl)-5-oxo-4,5-dihydropyrazolo[1,5-a]pyrimidine-6-carboxamide] are within 1.5-fold of each other in IC50: 0.58 nM for the first, 0.54 nM for the second.

`COC[C@H]1COCCN1C(=O)/C=C/c1cnn2c(O)c(C(=O)NC3CC3)c(=O)n(CC3(C)CC3)c12` [Synthesis Example 371, (S,E)-N-Cyclopropyl-7-hydroxy-3-(3-(3-(methoxymethyl)morpholino)-3-oxoprop-1-en-1-yl)-4-((1-methylcyclopropyl)methyl)-5-oxo-4,5-dihydropyrazolo[1,5-a]pyrimidine-6-carboxamide] and `COC[C@@H]1COCCN1C(=O)/C=C/c1cnn2c(O)c(C(=O)NC3CC3)c(=O)n(CC3(C)CC3)c12` [Synthesis Example 372, (R,E)-N-Cyclopropyl-7-hydroxy-3-(3-(3-(methoxymethyl)morpholino)-3-oxoprop-1-en-1-yl)-4-((1-methylcyclopropyl)methyl)-5-oxo-4,5-dihydropyrazolo[1,5-a]pyrimidine-6-carboxamide] are within 1.5-fold of each other in IC50: 0.61 nM for the first, 0.55 nM for the second.

`CC1(Cn2c(=O)c(C(=O)NC3CC3)c(O)n3ncc(/C=C/C(=O)N4C[C@H]5C[C@@H]4CO5)c23)CC1` [Synthesis Example 373] and `CC1(Cn2c(=O)c(C(=O)NC3CC3)c(O)n3ncc(/C=C/C(=O)N4C[C@@H]5C[C@H]4CO5)c23)CC1` [Synthesis Example 374] are within 1.5-fold of each other in IC50: 0.74 nM for the first, 0.65 nM for the second.

`O=C(NC1CC1)c1c(O)n2ncc(/C=C/C(=O)N3C[C@@H]4C[C@H]3CO4)c2n(CC2(F)CC2)c1=O` [Synthesis Example 375] and `O=C(NC1CC1)c1c(O)n2ncc(/C=C/C(=O)N3C[C@H]4C[C@@H]3CO4)c2n(CC2(F)CC2)c1=O` [Synthesis Example 377] are within 1.5-fold of each other in IC50: 0.65 nM for the first, 0.78 nM for the second.

`C[C@H]1COCCN1C(=O)/C=C/c1cnn2c(O)c(C(=O)NC3CC3)c(=O)n(CC3(F)CC3)c12` [Synthesis Example 379, (S,E)-N-Cyclopropyl-4-((1-fluorocyclopropyl)methyl)-7-hydroxy-3-(3-(3-methylmorpholino)-3-oxoprop-1-en-1-yl)-5-oxo-4,5-dihydropyrazolo[1,5-a]pyrimidine-6-carboxamide] and `C[C@@H]1COCCN1C(=O)/C=C/c1cnn2c(O)c(C(=O)NC3CC3)c(=O)n(CC3(F)CC3)c12` [Synthesis Example 380, (R,E)-N-Cyclopropyl-4-((1-fluorocyclopropyl)methyl)-7-hydroxy-3-(3-(3-methylmorpholino)-3-oxoprop-1-en-1-yl)-5-oxo-4,5-dihydropyrazolo[1,5-a]pyrimidine-6-carboxamide] are within 1.5-fold of each other in IC50: 0.7 nM for the first, 0.76 nM for the second.

`O=C(NC1CC1)c1c(O)n2ncc(/C=C/C(=O)N3CCOCC3)c2n(CC2CCC2)c1=O` [Synthesis Example 381, (E)-4-(Cyclobutylmethyl)-N-cyclopropyl-7-hydroxy-3-(3-morpholino-3-oxoprop-1-en-1-yl)-5-oxo-4,5-dihydropyrazolo[1,5-a]pyrimidine-6-carboxamide] was tested, and the IC50 was 0.71 nM.
